Test results: patent US10160753B2, “Indazole compounds as IRAK4 inhibitors” (Aurigene Discovery Technologies Limited, priority 2014, dated 2018)
Counter-ions that a name gives are not always drawn.

The compounds below were run against T1, recombinant IRAK-4 kinase (Homo sapiens, UniProt Q9NWZ3) (assay: IRAK-4 Biochemical Assay (TR-FRET)). Conditions: 30 min pre-incubation, 100 nM Biotin Histone H3, 20 μM ATP, read-out: IC50 values for IRAK4 activity.
T1 construct: purchased Millipore, USA
T1 sequence (Q9NWZ3 1-460): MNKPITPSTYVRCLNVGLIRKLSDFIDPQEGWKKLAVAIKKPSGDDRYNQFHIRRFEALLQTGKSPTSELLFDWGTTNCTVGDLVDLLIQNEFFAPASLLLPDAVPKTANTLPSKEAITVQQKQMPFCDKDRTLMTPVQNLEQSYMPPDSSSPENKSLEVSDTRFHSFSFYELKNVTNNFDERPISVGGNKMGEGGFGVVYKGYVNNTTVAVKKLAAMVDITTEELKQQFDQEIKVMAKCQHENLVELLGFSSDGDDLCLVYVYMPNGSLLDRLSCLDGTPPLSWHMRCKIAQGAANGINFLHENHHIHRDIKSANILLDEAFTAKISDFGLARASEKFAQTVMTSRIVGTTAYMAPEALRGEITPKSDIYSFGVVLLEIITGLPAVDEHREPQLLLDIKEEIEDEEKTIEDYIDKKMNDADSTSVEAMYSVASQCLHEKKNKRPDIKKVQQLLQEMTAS
Procedure: Compounds were tested for their potential to inhibit IRAK-4 enzyme in a TR-FRET assay using recombinant IRAK-4 kinase from Millipore, USA. The assay buffer was 50 mM Tris-HCl pH 7.5, 20 mM MgCl2, 1 mM EGTA, 2 mM DTT, 3 mM MnCl2 and 0.01% Tween 20.5 ng of IRAK-4 kinase was used for the assay. After pre-incubation of enzyme with test compound for 30 minutes at room temperature, a substrate mixture containing 100 nM Biotin Histone H3 (Millipore, USA) and 20 μM ATP (Sigma, USA) was added and the reaction was incubated for 30 min. Post incubation, the reaction was stopped by the addition of stop mix containing 40 mM EDTA, 1 nM of Europium-Anti-Phospho-Histone H3 (Ser10) antibody (Perkin Elmer, USA) and 20 nM SureLight Allophycocyanin-Streptavidin (Perkin Elmer, USA). The fluorescence emission at 615 nm and 665 nm were measured at an excitation of 340 nm and the percent inhibition was estimated from the ratio of the fluorescence intensities [(F665/F615)×10000]. The compounds were initially screened at 1 μM and 10 μM concentrations and potent compounds (>50% inhibition at 1 μM) were taken for dose response studies. The IC50 values were estimated by fitting the dose-response data to sigmoidal dose response (variable slope), curve fitting program using Graphpad Prism software Version 6.01.

Structure (SMILES) | IC50 [µM]
Cn1ncc2cc(NC(=O)c3cccc(N4CC[C@H](O)C4)n3)c(C3CC3)cc21 [Example 37, (S)—N-(6-cyclopropyl-1-methyl-1H-indazol-5-yl)-6-(3-hydroxypyrrolidin-1-yl)picolinamide] | > 0.1
CCOP(=O)(OCC)OCC1CCN(c2cc3nn(C)cc3cc2NC(=O)c2coc(-c3ccnc(C)c3)n2)CC1 [Example 129, Diethyl ((1-(2-methyl-5-(2-(2-methylpyridin-4-yl)oxazole-4-carboxamido)-2H-indazol-6-yl)piperidin-4-yl)methyl) phosphate] | < 0.05
Cn1cc2cc(NC(=O)c3coc(N4CC[C@H](O)C4)n3)c(C3CC3)cc2n1 [Example 55, (S)—N-(6-cyclopropyl-2-methyl-2H-indazol-5-yl)-2-(3-hydroxypyrrolidin-1-yl)oxazole-4-carboxamide] | 0.05 to 0.1
Cn1cc2cc(NC(=O)c3coc(N4CC[C@H](N)C4)n3)c(C3CC3)cc2n1 [Example 54, (S)-2-(3-aminopyrrolidin-1-yl)-N-(6-cyclopropyl-2-methyl-2H-indazol-5-yl)oxazole-4-carboxamide] | > 0.1
C[C@H](O)Cn1cc(-c2cccc(C(=O)Nc3cc4cn(C)nc4cc3N3CCCCC3)n2)cn1 [Example 34, (S)-6-(1-(2-hydroxypropyl)-1H-pyrazol-4-yl)-N-(2-methyl-6-(piperidin-1-yl)-2H-indazol-5-yl)picolinamide] | < 0.05
Cc1ccc(-c2nc(C(=O)Nc3cc4cn(C5CCCC5)nc4cc3C3CC3)co2)cn1 [Example 28, N-(2-cyclopentyl-6-cyclopropyl-2H-indazol-5-yl)-2-(6-methylpyridin-3-yl)oxazole-4-carboxamide] | < 0.05

Results, then the compound that gave them:

IC50 [µM] | Structure (SMILES)
< 0.05 | COCC(=O)OC1CCN(c2cc3c(cc2NC(=O)c2coc(-c4ccnc(C)c4)n2)c(C)nn3C)CC1 [Example 106, 1-(1,3-dimethyl-5-(2-(2-methylpyridin-4-yl)oxazole-4-carboxamido)-1H-indazol-6-yl)piperidin-4-yl 2-methoxyacetate]
< 0.05 | Cn1cc2cc(NC(=O)c3coc(-c4ccnc(N)c4)n3)c(N3CCC(CO)CC3)cc2n1 [Example 100, 2-(2-aminopyridin-4-yl)-N-(6-(4-(hydroxymethyl)piperidin-1-yl)-2-methyl-2H-indazol-5-yl)oxazole-4-carboxamide hydrochloride]
< 0.05 | Cn1cc2cc(NC(=O)c3coc(-c4ccnc(NS(C)(=O)=O)c4)n3)c(N3CCC(O)CC3)cc2n1 [Example 123, N-(6-(4-hydroxypiperidin-1-yl)-2-methyl-2H-indazol-5-yl)-2-(2-(methylsulfonamido)pyridin-4-yl) oxazole-4-carboxamide]
< 0.05 | Cc1cc(-c2nc(C(=O)Nc3cc4cn(C)nc4cc3N3CCCC(O)C3)co2)ccn1 (centres unmarked) [Example 68, N-(6-(3-hydroxypiperidin-1-yl)-2-methyl-2H-indazol-5-yl)-2-(2-methylpyridin-4-yl)oxazole-4-carboxamide]
< 0.05 | CC(=O)Nc1cc(-c2nc(C(=O)Nc3cc4cn(C)nc4cc3N3CCC(CO)CC3)co2)ccn1 [Example 98, 2-(2-acetamidopyridin-4-yl)-N-(6-(4-(hydroxymethyl)piperidin-1-yl)-2-methyl-2H-indazol-5-yl)oxazole-4-carboxamide]
< 0.05 | Cc1cc(-c2nc(C(=O)Nc3cc4cnn(C)c4cc3C3CC3)co2)ccn1 [Example 45, N-(6-cyclopropyl-1-methyl-1H-indazol-5-yl)-2-(2-methylpyridin-4-yl)oxazole-4-carboxamide]
< 0.05 | CC(=O)Nc1cc(-c2nc(C(=O)Nc3cc4cn(C)nc4cc3N3CCCC(F)C3)co2)ccn1 (centres unmarked) [Example 85, 2-(2-acetamidopyridin-4-yl)-N-(6-(3-fluoropiperidin-1-yl)-2-methyl-2H-indazol-5-yl)oxazole-4-carboxamide]
< 0.05 | COc1cc(-c2nc(C(=O)Nc3cc4cnn(C)c4cc3N3CCC(O)CC3)co2)ccn1 [Example 101, N-(6-(4-hydroxypiperidin-1-yl)-1-methyl-1H-indazol-5-yl)-2-(2-methoxypyridin-4-yl)oxazole-4-carboxamide]
